Reference: PubChem BioAssay AID1259411 (Chemical Carcinogenesis Research Information System (CCRIS), 2018)
Activity calls are given as the source filed them. The rule behind the calls is not given here.

Test system: rodent carcinogenicity bioassays, tumor incidence
Assay: CCRIS carcinogenicity studies
Outline: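 Archive of carcinogenicity, mutagenicity, tumor promotion and tumor inhibition results drawn from journals, NCI reports and other sources, expert-reviewed; covers 1985-2011 and is no longer updated.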

Nc1ccc(-c2ccccc2)cc1
carcinogen call (Species: DOG, Route: ORAL, Tumor Site: Type of Lesion: URINARY BLADDER): active; positive | carcinogen call (Species: HUMAN, Route: ORAL, INHALATION, DERMAL, Tumor Site: Type of Lesion: URINARY BLADDER): active; positive | carcinogen call (Species: MOUSE, Route: ORAL, Tumor Site: Type of Lesion: URINARY BLADDER, LIVER): active; positive | carcinogen call (Species: MOUSE, Route: SUBCUTANEOUS, Tumor Site: Type of Lesion: LIVER): active; positive | carcinogen call (Species: MOUSE, Strain/Sex: B6C3F1/MALE, Route: INTRAPERITONEAL, Dose: 0, 0.625 UMOL IN 35 µL DMSO ON D 1, 8, AND 15 AFTER BIRTH (STUDY DURATION: 8 MO), Tumor Site: Type of Lesion: LIVER: HEPATOCELLULAR ADENOMA): active; positive | carcinogen call (Species: MOUSE, Strain/Sex: B6C3F1/MALE, Route: INTRAPERITONEAL, Dose: 0, 0.625 UMOL IN 35 µL DMSO ON D 1, 8, AND 15 AFTER BIRTH (STUDY DURATION: 12 MO), Tumor Site: Type of Lesion: LIVER: HEPATOCELLULAR ADENOMA, HEPATOCELLULAR CARCINOMA): active; positive | carcinogen call (Species: MOUSE, Strain/Sex: B6C3F1/MALE, Route: INTRAPERITONEAL, Dose: 0, 1.25 UMOL IN 35 µL DMSO ON D 1, 8, AND 15 AFTER BIRTH (STUDY DURATION: 8 MO), Tumor Site: Type of Lesion: LIVER: HEPATOCELLULAR ADENOMA): active; positive | carcinogen call (Species: MOUSE, Strain/Sex: B6C3F1/MALE, Route: INTRAPERITONEAL, Dose: 0, 1.25 UMOL IN 35 µL DMSO ON D 1, 8, AND 15 AFTER BIRTH (STUDY DURATION: 12 MO), Tumor Site: Type of Lesion: LIVER: HEPATOCELLULAR ADENOMA, HEPATOCELLULAR CARCINOMA): active; positive | carcinogen call (Species: MOUSE, Strain/Sex: BALB/CSTCRLFC3HF/NCTR/FEMALE, Route: ORAL, Dose: 0, 7, 19, 38, 75, 150, 300 PPM IN DRINKING WATER FOR 96 WK (STUDY DURATION: 96 WK), Dose: 0, 7, 19, 38, 75, 150, 300 PPM IN DRINKING WATER FOR 96 WK (STUDY DURATION: 96 WK), Tumor Site: Type of Lesion: BLOOD VESSELS: ANGIOSARCOMA, LIVER: HEPATOCELLULAR CARCINOMA): active; positive | carcinogen call (Species: MOUSE, Strain/Sex: BALB/CSTCRLFC3HF/NCTR/MALE, Route: ORAL, Dose: 0, 7, 14, 28, 55, 110, 220 PPM IN DRINKING WATER FOR 96 WK (STUDY DURATION: 96 WK), Dose: 0, 7, 14, 28, 55, 110, 220 PPM IN DRINKING WATER FOR 96 WK (STUDY DURATION: 96 WK), Tumor Site: Type of Lesion: BLOOD VESSELS: ANGIOSARCOMA, BLADDER: CARCINOMA): active; positive | carcinogen call (Species: RABBIT, Route: ORAL, Tumor Site: Type of Lesion: URINARY BLADDER): active; positive | carcinogen call (Species: RAT, Route: SUBCUTANEOUS, Tumor Site: Type of Lesion: MAMMARY GLAND, INTESTINES): active; positive

CC1=CC(C)(C)N(N=O)c2ccccc21
carcinogen call (Species: RAT, Strain/Sex: CB/MALE, Route: INTRAPERITONEAL, Dose: 0, 25 MG IN POLYETHYLENE GLYCOL 400 1/WK FOR 6 MO FOR A TOTAL DOSE OF 0, 650 MG (STUDY DURATION: 24 MO), Dose: 0, 25 MG IN POLYETHYLENE GLYCOL 400 1/WK FOR 6 MO FOR A TOTAL DOSE OF 0, 650 MG (STUDY DURATION: 24 MO), Tumor Site: Type of Lesion: PERITONEUM: SARCOMA): active; positive

CN(C)c1nc(=O)n(C2CCCCC2)c(=O)n1C
carcinogen call (Species: DOG, Strain/Sex: BEAGLE/FEMALE, Route: ORAL, Dose: 0, 200, 1000 PPM IN DIET FOR 90 D OR 5000 PPM FOR 1 WK, THEN 2500 PPM FOR 4 D IN WK 2 THEN 3750 PPM FOR 3 D FOLLOWED BY, Dose: 0, 200, 1000 PPM IN DIET FOR 90 D OR 5000 PPM FOR 1 WK, THEN 2500 PPM FOR 4 D IN WK 2 THEN 3750 PPM FOR 3 D FOLLOWED BY): inactive; negative | carcinogen call (Species: DOG, Strain/Sex: BEAGLE/MALE, Route: ORAL, Dose: 0, 200, 1000 PPM IN DIET FOR 90 D OR 5000 PPM FOR 1 WK, THEN 2500 PPM FOR 4 D IN WK 2 THEN 3750 PPM FOR 3 D FOLLOWED BY, Dose: 0, 200, 1000 PPM IN DIET FOR 90 D OR 5000 PPM FOR 1 WK, THEN 2500 PPM FOR 4 D IN WK 2 THEN 3750 PPM FOR 3 D FOLLOWED BY): inactive; negative | carcinogen call (Species: MOUSE, Strain/Sex: CD-1/FEMALE, Route: ORAL, Dose: 0, 200, 2500, 10000 PPM IN DIET FOR 2 YR (STUDY DURATION: 2 YR), Dose: 0, 200, 2500, 10000 PPM IN DIET FOR 2 YR (STUDY DURATION: 2 YR)): inactive; negative | carcinogen call (Species: MOUSE, Strain/Sex: CD-1/MALE, Route: ORAL, Dose: 0, 200, 2500, 10000 PPM IN DIET FOR 2 YR (STUDY DURATION: 2 YR), Dose: 0, 200, 2500, 10000 PPM IN DIET FOR 2 YR (STUDY DURATION: 2 YR)): inactive; negative | carcinogen call (Species: RAT, Strain/Sex: CRL-CD/FEMALE, Route: ORAL, Dose: 0, 200, 1000, 2500 PPM IN DIET FOR 2 YR (STUDY DURATION: 2 YR), Dose: 0, 200, 1000, 2500 PPM IN DIET FOR 2 YR (STUDY DURATION: 2 YR)): inactive; negative | carcinogen call (Species: RAT, Strain/Sex: CRL-CD/MALE, Route: ORAL, Dose: 0, 200, 1000, 2500 PPM IN DIET FOR 2 YR (STUDY DURATION: 2 YR), Dose: 0, 200, 1000, 2500 PPM IN DIET FOR 2 YR (STUDY DURATION: 2 YR)): inactive; negative

O=[N+]([O-])c1ccc2c(c1)-c1ccc([N+](=O)[O-])c3cccc-2c13
carcinogen call (Species: RAT, Strain/Sex: F344/DUCRJ/MALE, Route: PULMONARY IMPLANT, Dose: 0, 0.05, 0.1, 0.2 MG AS A SUSPENSION IN EQUAL VOL OF BEESWAX AND TRICAPRYLIN IMPLANTED IN LEFT LUNG (STUDY DURATION: 70, Dose: 0, 0.05, 0.1, 0.2 MG AS A SUSPENSION IN EQUAL VOL OF BEESWAX AND TRICAPRYLIN IMPLANTED IN LEFT LUNG (STUDY DURATION: 70, Tumor Site: Type of Lesion: LUNG: TUMOR): active; positive | carcinogen call (Species: RAT, Strain/Sex: F344/MALE, Route: LUNG IMPLANT, Dose: 0, 50, 100, 200 UG IN BEESWAX/TRICAPRYLIN INTO LOWER LEFT LUNG ONCE (STUDY DURATION: 100 WK), Dose: 0, 50, 100, 200 UG IN BEESWAX/TRICAPRYLIN INTO LOWER LEFT LUNG ONCE (STUDY DURATION: 100 WK), Tumor Site: Type of Lesion: LUNG: SQUAMOUS CELL CARCINOMA, ADENOSQUAMOUS CARCINOMA, TUMOR): active; positive | carcinogen call (Species: RAT, Strain/Sex: F344/MALE, Route: PULMONARY IMPLANT, Dose: 0, 50, 100, 200 UG IN 50 µL BEESWAX/TRICAPRYLIN IMPLANTED FOR UP TO 100 WK (STUDY DURATION: 100 WK), Dose: 0, 50, 100, 200 UG IN 50 µL BEESWAX/TRICAPRYLIN IMPLANTED FOR UP TO 100 WK (STUDY DURATION: 100 WK), Tumor Site: Type of Lesion: LUNG: TUMOR): active; positive

O=C1OC2(c3ccccc31)c1ccc(O)c(Br)c1Oc1c2ccc(O)c1Br
carcinogen call (Species: MOUSE, Strain/Sex: ICR/FEMALE, Route: DERMAL, Dose: 0, 1 MG IN 0.1 ML DISTILLED WATER 2/WK FOR A MEAN TOTAL DOSE OF 136.5 MG (STUDY DURATION: 18 MO)): inactive; negative | carcinogen call (Species: MOUSE, Strain/Sex: ICR/MALE, Route: DERMAL, Dose: 0, 1 MG IN 0.1 ML DISTILLED WATER 2/WK FOR A MEAN TOTAL DOSE OF 136.5 MG (STUDY DURATION: 18 MO)): inactive; negative

CCn1cc(C(=O)O)c(=O)c2cc(F)c(N3CCNCC3)cc21
carcinogen call (Species: Rat, Strain/Sex: F344/Male (15/Group), Route: Oral, Dose: 0, 750, 1500 mg/kg daily for 3 wks after 2/3rd partial hepatectomy, from 2 wks after carcinogen dosing, 500 ppm phenobar, Tumor Site: Type of Lesion: Liver): inactive; negative

[O]=[Al][O][Si](=O)O[Si](=O)[O][Al]=[O]
carcinogen call (Species: Rat, Strain/Sex: Wistar/Female (48/group), Route: Intratracheal, Dose: 6 mg instillations of 0.01-0.03 um particles given as 10 or 20 doses wk 26, study duration 115 or 121 wk or no treatment, Tumor Site: Type of Lesion: Lung: Bronchiolo-alveolar adenoma (12/48 and 11/47 in experimental animals vs 1/46 control animals), bronchiolo-alveolar): active; positive
